Measured values reported in US20110152313A1 (MACQUARIE UNIVERSITY, priority 2008, published 2011).

Assays:
Assay in all cases: kinase binding screen (kinase-tagged T7 phage, qPCR), % Ctrl
[1] = target: RPS6KA2(Kin.Dom.2-C-terminal) (Homo sapiens, UniProt Q15349)
Method in brief: (§1)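 Steps: grow T7 phage displaying kinase in BL21-derived E. coli; clarify lysate; combine with ligand-liganded, blocked beads and compound (single concentration, diluted from 40× DMSO stock); elute; quantify kinase by qPCR.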

ZAP70 = target: T1, ZAP70 (Homo sapiens, UniProt P43403)
T1 sequence (P43403 1-619): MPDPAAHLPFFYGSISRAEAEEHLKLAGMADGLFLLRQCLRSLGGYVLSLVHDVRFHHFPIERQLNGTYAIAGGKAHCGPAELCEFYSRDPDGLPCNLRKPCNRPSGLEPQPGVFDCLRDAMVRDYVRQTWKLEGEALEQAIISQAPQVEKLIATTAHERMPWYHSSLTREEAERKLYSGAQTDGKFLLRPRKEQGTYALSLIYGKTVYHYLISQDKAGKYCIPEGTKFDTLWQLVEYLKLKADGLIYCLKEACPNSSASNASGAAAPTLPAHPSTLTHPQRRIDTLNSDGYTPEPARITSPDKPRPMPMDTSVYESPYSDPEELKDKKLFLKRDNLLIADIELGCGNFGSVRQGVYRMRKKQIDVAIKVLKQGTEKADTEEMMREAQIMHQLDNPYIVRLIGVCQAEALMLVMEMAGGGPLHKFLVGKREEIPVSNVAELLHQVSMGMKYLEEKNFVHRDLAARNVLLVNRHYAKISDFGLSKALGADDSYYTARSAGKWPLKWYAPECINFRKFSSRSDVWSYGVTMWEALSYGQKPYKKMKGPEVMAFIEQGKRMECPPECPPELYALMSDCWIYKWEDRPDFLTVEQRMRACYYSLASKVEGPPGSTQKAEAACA
Method in brief: as §1

CAMK1G = CAMK1G (Homo sapiens, UniProt Q96NX5)
Method in brief: as §1

ULK3 = target: T2, ULK3 (Homo sapiens, UniProt Q6PHR2)
T2 sequence (Q6PHR2 1-472): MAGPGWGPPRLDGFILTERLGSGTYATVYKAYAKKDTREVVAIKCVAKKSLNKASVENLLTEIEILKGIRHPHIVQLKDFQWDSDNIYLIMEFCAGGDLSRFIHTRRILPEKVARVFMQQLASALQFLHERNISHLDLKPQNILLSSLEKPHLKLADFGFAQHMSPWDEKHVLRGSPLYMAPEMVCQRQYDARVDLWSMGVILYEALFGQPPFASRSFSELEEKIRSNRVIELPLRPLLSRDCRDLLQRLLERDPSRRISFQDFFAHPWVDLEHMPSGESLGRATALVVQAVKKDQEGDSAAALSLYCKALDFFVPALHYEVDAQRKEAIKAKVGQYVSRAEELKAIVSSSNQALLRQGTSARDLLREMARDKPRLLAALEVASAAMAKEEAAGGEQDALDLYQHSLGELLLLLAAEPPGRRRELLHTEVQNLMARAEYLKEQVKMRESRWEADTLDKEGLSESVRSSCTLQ
Method in brief: as §1

CAMK4 = target: T3, CAMK4 (Homo sapiens, UniProt Q16566)
T3 sequence (Q16566 1-473): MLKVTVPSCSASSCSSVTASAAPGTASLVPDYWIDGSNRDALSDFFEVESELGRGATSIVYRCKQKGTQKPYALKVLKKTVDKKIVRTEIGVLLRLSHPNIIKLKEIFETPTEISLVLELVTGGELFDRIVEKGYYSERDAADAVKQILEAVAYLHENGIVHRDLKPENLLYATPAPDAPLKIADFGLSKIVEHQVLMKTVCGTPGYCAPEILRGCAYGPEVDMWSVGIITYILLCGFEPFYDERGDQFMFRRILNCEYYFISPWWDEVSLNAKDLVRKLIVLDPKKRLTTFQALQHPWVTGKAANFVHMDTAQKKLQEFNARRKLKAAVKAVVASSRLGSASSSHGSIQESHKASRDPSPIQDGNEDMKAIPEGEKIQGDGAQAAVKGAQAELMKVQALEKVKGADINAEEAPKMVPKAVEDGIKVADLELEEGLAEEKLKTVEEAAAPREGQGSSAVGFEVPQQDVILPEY
Method in brief: as §1

IRAK1 = IRAK1 (Homo sapiens, UniProt P51617)
Method in brief: as §1

Chain of CAMK1G (Q96NX5 whole entry): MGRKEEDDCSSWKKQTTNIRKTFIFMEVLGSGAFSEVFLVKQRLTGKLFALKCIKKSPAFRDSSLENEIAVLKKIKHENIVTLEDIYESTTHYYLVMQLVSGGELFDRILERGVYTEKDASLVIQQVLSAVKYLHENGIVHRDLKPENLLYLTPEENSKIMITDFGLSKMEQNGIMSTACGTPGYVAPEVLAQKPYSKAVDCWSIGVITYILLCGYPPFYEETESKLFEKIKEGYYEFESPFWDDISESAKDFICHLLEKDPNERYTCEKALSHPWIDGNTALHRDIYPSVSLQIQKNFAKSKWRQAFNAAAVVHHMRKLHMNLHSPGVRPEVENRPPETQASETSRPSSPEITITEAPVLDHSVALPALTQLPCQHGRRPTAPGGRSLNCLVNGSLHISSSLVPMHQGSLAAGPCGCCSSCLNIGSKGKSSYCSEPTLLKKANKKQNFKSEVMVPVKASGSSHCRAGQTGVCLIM
Chain of IRAK1 (P51617 whole entry, species assumed): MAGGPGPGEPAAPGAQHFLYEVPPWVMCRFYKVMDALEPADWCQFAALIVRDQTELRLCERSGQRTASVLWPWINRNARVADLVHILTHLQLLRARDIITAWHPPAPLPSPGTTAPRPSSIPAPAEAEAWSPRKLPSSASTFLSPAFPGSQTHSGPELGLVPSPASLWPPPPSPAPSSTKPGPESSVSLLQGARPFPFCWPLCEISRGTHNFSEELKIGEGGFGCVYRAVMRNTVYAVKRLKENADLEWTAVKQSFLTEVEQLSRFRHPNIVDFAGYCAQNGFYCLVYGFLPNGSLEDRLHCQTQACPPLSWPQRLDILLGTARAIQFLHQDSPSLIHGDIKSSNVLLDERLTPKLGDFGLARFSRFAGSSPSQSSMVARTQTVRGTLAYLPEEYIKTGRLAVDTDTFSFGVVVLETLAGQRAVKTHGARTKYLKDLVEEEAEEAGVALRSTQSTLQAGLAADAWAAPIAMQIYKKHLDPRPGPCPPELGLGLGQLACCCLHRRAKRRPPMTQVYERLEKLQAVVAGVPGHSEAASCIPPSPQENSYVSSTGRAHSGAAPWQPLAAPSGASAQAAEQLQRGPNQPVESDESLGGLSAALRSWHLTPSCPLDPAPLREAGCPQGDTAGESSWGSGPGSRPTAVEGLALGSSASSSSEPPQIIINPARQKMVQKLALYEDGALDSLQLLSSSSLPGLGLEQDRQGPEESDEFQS
Chain of RPS6KA2(Kin.Dom.2-C-terminal) (Q15349 415-672 limits assumed, species assumed): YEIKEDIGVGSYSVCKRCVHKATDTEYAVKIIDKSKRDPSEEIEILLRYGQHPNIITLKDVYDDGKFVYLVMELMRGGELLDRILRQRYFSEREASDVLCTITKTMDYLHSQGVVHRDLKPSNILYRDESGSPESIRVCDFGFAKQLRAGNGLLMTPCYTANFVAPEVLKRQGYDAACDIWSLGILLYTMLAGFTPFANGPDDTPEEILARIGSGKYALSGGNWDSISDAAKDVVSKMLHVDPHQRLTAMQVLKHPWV

Row | remaining activity at 10 µM ([1]; 10 μM) [%] | remaining activity at 10 µM (ZAP70; 10 μM) [%] | remaining activity at 10 µM (CAMK1G; 10 μM) [%] | remaining activity at 10 µM (ULK3; 10 μM) [%] | remaining activity at 10 µM (CAMK4; 10 μM) [%] | remaining activity at 10 µM (IRAK1; 10 μM) [%] | SMILES | remaining activity at 1 µM [1] [%] | remaining activity at 1 µM (ZAP70) [%] | remaining activity at 1 µM (CAMK1G) [%] | remaining activity at 1 µM (ULK3) [%] | remaining activity at 1 µM (CAMK4) [%] | remaining activity at 1 µM (IRAK1) [%]
1 | 25 | 65 | 96 | 81 | 97 | 35 | Nc1nc2c(-c3cc(Br)c(Br)[nH]3)nccc2[nH]1 [Ageladine A, ageladine A, reference compound] | 42 | 81 | 100 | 82 | 100 | 55
2 |  |  |  |  |  |  | Nc1nc2c(-c3ccccn3)nccc2[nH]1 [drawing 35, 4-(pyrid-2-yl)-1H-imidazo[4,5-c]pyridin-2-amine] | 68 | 54 | 43 | 51 | 100 | 52
3 |  |  |  |  |  |  | Nc1nc2c(-c3cnc4ccccc4c3)nccc2[nH]1 [drawing 36, 4-(quinolin-3-yl)-1H-imidazo[4,5-c]pyridin-2-amine] | 100 | 94 | 100 | 87 | 100 | 89
